Test results published in the NIST ThermoML archive (doi:10.1016/j.jct.2014.09.014).
Numbers after ± are expanded uncertainties.

Settings: Liquid, Vibrating tube method

CCCCn1cc[n+](C)c1C.O=S(=O)([N-]S(=O)(=O)C(F)(F)F)C(F)(F)F
mass density [kg/m3]
Settings	100 kPa	1000 kPa	10000 kPa	20000 kPa	40000 kPa	60000 kPa	80000 kPa	100000 kPa	120000 kPa
278.15 K	1439.8 ± 0.7	1440 ± 0.7	1445.9 ± 0.8	1452.2 ± 0.9	1464 ± 1.1	1475 ± 1.4	1485.2 ± 1.7	1494.7 ± 2.1	1503.9 ± 2.6
298.15 K	1420.9 ± 0.7	1421.2 ± 0.7	1427.5 ± 0.8	1434.1 ± 0.9	1446.5 ± 1.1	1458 ± 1.4	1468.8 ± 1.7	1479 ± 2.1	1488.7 ± 2.5
313.15 K	1407.1 ± 0.7	1407.5 ± 0.7	1414 ± 0.8	1420.9 ± 0.9	1433.9 ± 1.1	1445.8 ± 1.3	1457 ± 1.6	1467.3 ± 2	1477.2 ± 2.4
333.15 K	1388.5 ± 0.7	1389 ± 0.7	1396 ± 0.8	1403.4 ± 0.8	1417.1 ± 1	1429.7 ± 1.3	1441.4 ± 1.6	1452.2 ± 2	1462.6 ± 2.4
348.15 K	1374.7 ± 0.7	1375.3 ± 0.7	1382.7 ± 0.8	1390.4 ± 0.8	1404.7 ± 1	1417.8 ± 1.3	1429.9 ± 1.6	1441.1 ± 1.9	1451.7 ± 2.3
373.15 K	1351.1 ± 5	1352.3 ± 3	1360.4 ± 3	1368.7 ± 3	1384 ± 3.1	1397.9 ± 3.2	1410.6 ± 3.3	1422.5 ± 3.4	1433.6 ± 3.6
398.15 K	1328.4 ± 5	1329.7 ± 3	1338.4 ± 3	1347.4 ± 3	1363.8 ± 3.1	1378.5 ± 3.2	1392.1 ± 3.3	1404.6 ± 3.4	1416 ± 3.6
